# From patent US20120213758A1, “BIARYL PDE4 INHIBITORS FOR TREATING PULMONARY AND CARDIOVASCULAR DISORDERS” (DeCODE Genetics enf, priority 2007, published 2012)
# Structures can show the parent of a compound that is named as a salt. Where two headings read alike, the source gives them in different places.
# Molecular target: hPDE4D (Homo sapiens, UniProt Q08499)
# Assay: In-vitro real-time enzyme-coupled spectrophotometric assay for PDE4 enzymes (hPDE4D)
# Chain of hPDE4D (Q08499 whole entry): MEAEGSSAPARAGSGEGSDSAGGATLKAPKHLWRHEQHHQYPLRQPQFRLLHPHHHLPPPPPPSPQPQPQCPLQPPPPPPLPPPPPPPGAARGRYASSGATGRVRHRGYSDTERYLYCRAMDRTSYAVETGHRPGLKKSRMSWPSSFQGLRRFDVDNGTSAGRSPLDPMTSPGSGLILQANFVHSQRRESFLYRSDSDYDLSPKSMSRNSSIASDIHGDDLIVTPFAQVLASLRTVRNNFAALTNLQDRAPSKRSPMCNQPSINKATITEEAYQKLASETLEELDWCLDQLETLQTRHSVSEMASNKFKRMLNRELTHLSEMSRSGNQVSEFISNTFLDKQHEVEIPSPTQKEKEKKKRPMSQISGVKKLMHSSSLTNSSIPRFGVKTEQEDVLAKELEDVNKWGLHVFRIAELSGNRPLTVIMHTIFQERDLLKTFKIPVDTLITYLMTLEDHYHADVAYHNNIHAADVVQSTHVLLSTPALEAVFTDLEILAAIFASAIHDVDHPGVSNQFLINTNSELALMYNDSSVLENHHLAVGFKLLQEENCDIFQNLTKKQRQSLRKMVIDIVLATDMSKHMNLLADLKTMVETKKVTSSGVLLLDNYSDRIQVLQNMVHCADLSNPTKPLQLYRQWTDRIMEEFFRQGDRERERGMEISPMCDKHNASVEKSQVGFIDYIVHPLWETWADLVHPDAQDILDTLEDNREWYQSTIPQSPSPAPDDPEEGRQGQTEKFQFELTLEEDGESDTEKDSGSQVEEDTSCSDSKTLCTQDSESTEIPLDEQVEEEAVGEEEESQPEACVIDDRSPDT
IC50,SMILES,"IC50 (read-out: hPDE4D activity, enzyme-coupled NADH assay, absorbance at 340 nm)"
5 to 20 µM,"COc1ccc(CN2C(=O)c3ccccc3S2(=O)=O)cc1-c1cccc([N+](=O)[O-])c1 [Example A-002, 2-(6-Methoxy-3′-nitro-biphenyl-3-ylmethyl)-1,1-dioxo-1,2-dihydro-1lambda*6*-benzo[d]isothiazol-3-one]",
20 to 40 µM,"COC(=O)[C@H]1C[C@H](O)CN1Cc1ccc(OC)c(-c2cccc([N+](=O)[O-])c2)c1 [Example A-005, (2R,4S)-4-Hydroxy-1-(6-methoxy-3′-nitro-biphenyl-3-ylmethyl)-pyrrolidine-2-carboxylic acid methyl ester]",
< 5 µM,"COc1ccc(Cc2ccc(NC(=O)NCC(=O)O)cc2)c(F)c1-c1cccc(Br)c1 [Example A-022, {3-[4-(3′-Bromo-2-fluoro-6-methoxy-biphenyl-3-ylmethyl)-phenyl]-ureido}-acetic acid]",
< 5 µM,"COc1ccc(Cc2ccc(NC(=O)NCCC(=O)O)cc2)c(F)c1-c1cccc(Br)c1 [Example A-023, 3-{3-[4-(3′-Bromo-2-fluoro-6-methoxy-biphenyl-3-ylmethyl)-phenyl]-ureido}-propionic acid]",
< 5 µM,"CCOC(=O)CNC(=O)Nc1nnc(Cc2ccc(OC)c(-c3cccc(Cl)c3)c2F)s1 [Example A-024, {3-[5-(3′-Chloro-2-fluoro-6-methoxy-biphenyl-3-ylmethyl)-[1,3,4]thiadiazol-2-yl]-ureido}-acetic acid ethyl ester]",
< 5 µM,"CCOC(=O)CCNC(=O)Nc1nnc(Cc2ccc(OC)c(-c3cccc(Cl)c3)c2F)s1 [Example A-025, 3-{3-[5-(3′-Chloro-2-fluoro-6-methoxy-biphenyl-3-ylmethyl)-[1,3,4]thiadiazol-2-yl]-ureido}-propionic acid ethyl ester]",
< 5 µM,"COc1ccc(Cc2nnc(NC(=O)NCC(=O)O)s2)c(F)c1-c1cccc(Cl)c1 [Example A-026, {3-[5-(3′-Chloro-2-fluoro-6-methoxy-biphenyl-3-ylmethyl)-[1,3,4]thiadiazol-2-yl]-ureido}-acetic acid]",
< 5 µM,CCOC(=O)CCNC(=O)Nc1ccc(Cc2ccc(OC)c(-c3cccc(Cl)c3)c2F)cn1 [Example A-029],
< 5 µM,"CCOC(=O)C1CCN(C(=O)c2ccc(Cc3ccc(OC)c(-c4cccc(Cl)c4)c3F)cn2)CC1 [Example A-033, 1-[5-(3′-Chloro-2-fluoro-6-methoxy-biphenyl-3-ylmethyl)-pyridine-2-carbonyl]-piperidine-4-carboxylic acid ethyl ester]",
< 5 µM,"CCOC(=O)c1cn2cc(Cc3ccc(OC)c(-c4cccc(Cl)c4)c3F)ccc2n1 [Example A-039, 6-(3′-Chloro-2-fluoro-6-methoxy-biphenyl-3-ylmethyl)-imidazo[1,2-a]pyridine-2-carboxylic acid ethyl ester]",
< 5 µM,"COC(=O)C1CCN(c2ncc(Cc3ccc(OC)c(-c4cccc(Cl)c4)c3F)cn2)C1 (stereo not drawn) [Example A-045, 1-[5-(3′-Chloro-2-fluoro-6-methoxy-biphenyl-3-ylmethyl)-pyrimidin-2-yl]-pyrrolidine-3-carboxylic acid methyl ester]",
< 5 µM,"CCNC(=O)N(CC(=O)O)c1ccc(Cc2ccc(OC)c(-c3cccc(Cl)c3)c2F)cn1 [Example A-056, {1-[5-(3′-chloro-2-fluoro-6-methoxy-biphenyl-3-ylmethyl)-pyridin-2-yl]-3-ethyl-ureido}-acetic acid]",
,"NC(=O)Nc1ccc(Cc2ccc(OS(=O)(=O)O)c(-c3cccc(Cl)c3)c2)cc1 [Example A-062, Sodium sulfate of [4-(3′-Chloro-6-hydroxy-biphenyl-3-ylmethyl)-phenyl]-urea]",< 5 µM
< 5 µM,"COC(=O)[C@@H]1CCCN1c1ccc(Cc2ccc(OC)c(-c3cccc(Cl)c3)c2F)cn1 [Example A-069, (S)-1-[5-(3′-chloro-2-fluoro-6-methoxy-biphenyl-3-ylmethyl)-pyridin-2-yl]-pyrrolidine-2-carboxylic acid methyl ester]",
< 5 µM,"COc1ccc(Cc2ccc(C(=O)O)nc2)cc1-c1cccc(Cl)c1 [Example A-071, 5-(3′-Chloro-6-methoxy-biphenyl-3-ylmethyl)-pyridine-2-carboxylic acid]",
